Measurements: ChEMBL document CHEMBL4828709, “Discovery of 2,4-pyrimidinediamine derivatives as potent dual inhibitors of ALK and HDAC” (Eur J Med Chem, 2021)
Activity calls are given as the source filed them. The calls are words filed in the database; no cut-off is given here.

What was measured:
SH-SY5Y [1] = test: cells; assay type: functional, cell-based; conditions: Homo sapiens, 72 h
Description: Antiproliferative activity against human SH-SY5Y cells harboring ALK F1174L mutant assessed as inhibition of cell proliferation measured after 72 hrs by CCK8 assay

Histone deacetylase 1 [2] = biological target: T1, Histone deacetylase 1 (Homo sapiens, UniProt Q13547); conditions: Sf9, dose 100.0 nM, time 15.0 min
T1 sequence (Q13547 whole entry): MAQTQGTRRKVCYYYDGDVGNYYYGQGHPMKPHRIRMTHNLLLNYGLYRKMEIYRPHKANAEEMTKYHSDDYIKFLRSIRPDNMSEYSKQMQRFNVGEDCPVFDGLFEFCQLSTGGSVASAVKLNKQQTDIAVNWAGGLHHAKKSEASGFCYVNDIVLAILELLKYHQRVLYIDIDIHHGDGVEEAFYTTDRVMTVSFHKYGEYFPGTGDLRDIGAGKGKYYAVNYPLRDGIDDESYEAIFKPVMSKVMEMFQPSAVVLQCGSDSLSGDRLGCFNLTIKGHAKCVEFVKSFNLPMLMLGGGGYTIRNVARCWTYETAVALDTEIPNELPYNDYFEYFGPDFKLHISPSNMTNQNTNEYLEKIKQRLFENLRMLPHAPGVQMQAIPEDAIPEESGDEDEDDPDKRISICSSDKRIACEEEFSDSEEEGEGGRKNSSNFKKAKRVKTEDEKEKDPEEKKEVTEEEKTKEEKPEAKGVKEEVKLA

[3] = biological target: T2, ALK tyrosine kinase receptor (Homo sapiens, UniProt Q9UM73); test: Inhibition of ALK (unknown origin) at 10 nM preincubated for 10 mins followed by addition of substrate and ATP for 25 mins by caliper EZ reader method; conditions: time 35.0 min
Target sequence in this assay (Q9UM73 19-1620 limits assumed): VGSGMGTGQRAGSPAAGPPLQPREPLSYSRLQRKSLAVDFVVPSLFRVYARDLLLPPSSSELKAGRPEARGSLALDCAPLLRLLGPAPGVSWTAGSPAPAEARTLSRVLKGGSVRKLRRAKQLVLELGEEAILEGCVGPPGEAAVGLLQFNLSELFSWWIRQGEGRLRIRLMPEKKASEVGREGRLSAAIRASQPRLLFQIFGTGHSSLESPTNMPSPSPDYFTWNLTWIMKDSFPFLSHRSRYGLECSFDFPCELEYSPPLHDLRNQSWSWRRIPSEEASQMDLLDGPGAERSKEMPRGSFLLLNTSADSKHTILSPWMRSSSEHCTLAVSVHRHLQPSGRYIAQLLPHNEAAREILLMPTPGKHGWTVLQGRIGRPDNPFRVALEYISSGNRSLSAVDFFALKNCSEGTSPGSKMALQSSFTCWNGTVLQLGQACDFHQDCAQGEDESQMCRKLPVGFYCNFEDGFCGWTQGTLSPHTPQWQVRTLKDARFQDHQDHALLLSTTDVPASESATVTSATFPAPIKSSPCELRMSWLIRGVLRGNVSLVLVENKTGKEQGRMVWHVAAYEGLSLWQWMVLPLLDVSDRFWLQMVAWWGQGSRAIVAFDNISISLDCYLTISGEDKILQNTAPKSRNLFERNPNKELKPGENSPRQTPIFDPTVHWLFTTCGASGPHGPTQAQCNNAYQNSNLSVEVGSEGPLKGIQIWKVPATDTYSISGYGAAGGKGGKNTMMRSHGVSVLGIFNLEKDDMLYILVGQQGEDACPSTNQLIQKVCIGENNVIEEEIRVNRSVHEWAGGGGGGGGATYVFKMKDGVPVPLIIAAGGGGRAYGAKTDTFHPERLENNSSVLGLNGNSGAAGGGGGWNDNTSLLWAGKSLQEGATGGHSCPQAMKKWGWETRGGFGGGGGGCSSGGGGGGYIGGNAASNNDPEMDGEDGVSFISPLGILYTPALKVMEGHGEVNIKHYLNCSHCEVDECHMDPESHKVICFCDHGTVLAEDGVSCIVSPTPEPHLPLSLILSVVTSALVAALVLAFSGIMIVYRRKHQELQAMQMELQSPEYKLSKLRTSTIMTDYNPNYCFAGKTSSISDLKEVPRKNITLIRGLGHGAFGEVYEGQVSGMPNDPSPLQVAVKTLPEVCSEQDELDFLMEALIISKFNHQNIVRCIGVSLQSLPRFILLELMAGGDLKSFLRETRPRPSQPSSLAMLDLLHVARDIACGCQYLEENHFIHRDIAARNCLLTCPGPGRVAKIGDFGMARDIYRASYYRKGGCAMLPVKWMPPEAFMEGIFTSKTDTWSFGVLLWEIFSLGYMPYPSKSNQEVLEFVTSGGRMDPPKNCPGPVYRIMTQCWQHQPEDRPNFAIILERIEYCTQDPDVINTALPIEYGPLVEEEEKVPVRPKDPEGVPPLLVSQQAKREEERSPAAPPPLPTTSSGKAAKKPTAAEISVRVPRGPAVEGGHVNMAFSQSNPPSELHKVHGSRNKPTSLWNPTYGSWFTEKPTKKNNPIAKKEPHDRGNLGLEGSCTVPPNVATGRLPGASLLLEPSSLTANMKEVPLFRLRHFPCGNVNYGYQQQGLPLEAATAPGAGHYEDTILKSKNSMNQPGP

[4] = biological target: T2, ALK tyrosine kinase receptor
Target sequence in this assay (Q9UM73 whole entry): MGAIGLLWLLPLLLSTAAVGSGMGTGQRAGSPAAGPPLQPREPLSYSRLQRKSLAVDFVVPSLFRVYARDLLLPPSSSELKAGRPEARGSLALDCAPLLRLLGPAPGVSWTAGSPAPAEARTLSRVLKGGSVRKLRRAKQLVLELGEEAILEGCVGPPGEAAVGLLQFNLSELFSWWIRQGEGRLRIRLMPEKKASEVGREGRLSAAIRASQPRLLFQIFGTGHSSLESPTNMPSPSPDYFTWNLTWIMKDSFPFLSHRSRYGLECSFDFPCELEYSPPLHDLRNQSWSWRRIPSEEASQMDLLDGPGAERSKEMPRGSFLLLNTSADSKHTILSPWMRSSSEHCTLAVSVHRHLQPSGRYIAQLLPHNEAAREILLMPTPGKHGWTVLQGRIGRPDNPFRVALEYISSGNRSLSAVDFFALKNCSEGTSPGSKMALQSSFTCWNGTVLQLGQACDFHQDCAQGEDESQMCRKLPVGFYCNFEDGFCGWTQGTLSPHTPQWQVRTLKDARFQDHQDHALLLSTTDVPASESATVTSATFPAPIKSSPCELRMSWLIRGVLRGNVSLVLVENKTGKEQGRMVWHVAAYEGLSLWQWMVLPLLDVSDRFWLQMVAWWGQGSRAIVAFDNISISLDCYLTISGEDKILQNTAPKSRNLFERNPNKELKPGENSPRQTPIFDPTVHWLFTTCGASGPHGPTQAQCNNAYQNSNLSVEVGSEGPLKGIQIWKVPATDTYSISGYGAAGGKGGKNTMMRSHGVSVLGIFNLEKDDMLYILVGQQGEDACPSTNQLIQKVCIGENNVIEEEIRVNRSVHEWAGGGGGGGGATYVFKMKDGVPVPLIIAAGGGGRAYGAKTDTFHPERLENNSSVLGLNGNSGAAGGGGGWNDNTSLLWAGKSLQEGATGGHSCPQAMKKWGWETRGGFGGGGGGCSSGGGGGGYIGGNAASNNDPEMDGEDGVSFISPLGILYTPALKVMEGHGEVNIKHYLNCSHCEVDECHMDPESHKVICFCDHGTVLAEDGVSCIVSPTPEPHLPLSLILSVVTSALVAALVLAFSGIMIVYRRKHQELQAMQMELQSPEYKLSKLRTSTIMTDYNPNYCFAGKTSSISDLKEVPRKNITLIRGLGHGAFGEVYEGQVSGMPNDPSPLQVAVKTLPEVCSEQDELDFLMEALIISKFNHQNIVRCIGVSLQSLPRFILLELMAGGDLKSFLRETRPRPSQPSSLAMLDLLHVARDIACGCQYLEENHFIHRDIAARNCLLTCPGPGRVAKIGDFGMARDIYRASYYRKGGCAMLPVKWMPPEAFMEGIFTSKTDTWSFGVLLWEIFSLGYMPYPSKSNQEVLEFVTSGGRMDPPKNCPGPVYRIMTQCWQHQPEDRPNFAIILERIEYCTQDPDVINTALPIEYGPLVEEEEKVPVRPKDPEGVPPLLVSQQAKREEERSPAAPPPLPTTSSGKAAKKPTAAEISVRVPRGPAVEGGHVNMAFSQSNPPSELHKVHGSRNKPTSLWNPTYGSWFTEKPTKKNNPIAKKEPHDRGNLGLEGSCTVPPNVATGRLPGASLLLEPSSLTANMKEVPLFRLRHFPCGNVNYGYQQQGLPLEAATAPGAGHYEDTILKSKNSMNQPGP
Description: Inhibition of ALK (unknown origin) preincubated for 10 mins followed by addition of substrate and ATP for 25 mins by caliper EZ reader method

HepG2 = test: cells; assay type: functional, cell-based; conditions: Homo sapiens, HepG2, 72 h
Description: Antiproliferative activity against human HepG2 cells assessed as inhibition of cell proliferation measured after 72 hrs by CCK8 assay

MDA-MB-231 [5] = test: Antimigratory activity against human MDA-MB-231 cells assessed as wound closure at 0.4 uM measured after 48 hrs by cell scratch assay (reference value: 30.3%); assay type: functional
MDA-MB-231 [6] = test: Induction of apoptosis in human MDA-MB-231 cells assessed as orange-red fluorescence intensity at 1 to 4 uM measured after 24 hrs by AO/EB staining based fluorescence microscopy; assay type: functional, cell-based; conditions: dose 1-4 µM
MDA-MB-231 [7] = test: Induction of apoptosis in human MDA-MB-231 cells assessed as increase in blue fluorescence intensity at 1 to 4 uM measured after 24 hrs by Hoechst33258 staining based fluorescence microscopy; assay type: functional, cell-based; conditions: dose 1-4 µM
MDA-MB-231 [8] = test: Induction of apoptosis in human MDA-MB-231 cells assessed as viable cells at 1 uM measured after 24 hrs by Annexin V-FITC/PI staining based flowcytometry (reference value: 93.14%); assay type: functional; conditions: read-out: Activity
MDA-MB-231 [9] = test: Induction of apoptosis in human MDA-MB-231 cells assessed as late apoptotic cells at 1 uM measured after 24 hrs by Annexin V-FITC/PI staining based flowcytometry ( Rvb = 5.28%); assay type: functional
MDA-MB-231 [10] = test: Induction of apoptosis in human MDA-MB-231 cells assessed as early apoptotic cells at 2 uM measured after 24 hrs by Annexin V-FITC/PI staining based flowcytometry (reference value: 0.64%); assay type: functional
MDA-MB-231 [11] = test: Induction of apoptosis in human MDA-MB-231 cells assessed as viable cells at 4 uM measured after 24 hrs by Annexin V-FITC/PI staining based flowcytometry (reference value: 93.14%); assay type: functional; conditions: read-out: Activity
MDA-MB-231 [12] = test: Induction of apoptosis in human MDA-MB-231 cells assessed as early apoptotic cells at 4 uM measured after 24 hrs by Annexin V-FITC/PI staining based flowcytometry (reference value: 0.64%); assay type: functional
MDA-MB-231 [13] = test: Induction of apoptosis in human MDA-MB-231 cells assessed as late apoptotic cells at 4 uM measured after 24 hrs by Annexin V-FITC/PI staining based flowcytometry (reference value: 5.28%); assay type: functional
MDA-MB-231 [14] = test: Induction of apoptosis in human MDA-MB-231 cells assessed as necrotic cells at 4 uM measured after 24 hrs by Annexin V-FITC/PI staining based flowcytometry (reference value: 0.98%); assay type: functional
SH-SY5Y [15] = test: Induction of apoptosis in human SH-SY5Y cells assessed as viable cells at 1 uM measured after 24 hrs by Annexin V-FITC/PI staining based flowcytometry (reference value: 77.05%); assay type: functional; conditions: read-out: Activity
SH-SY5Y [16] = test: Induction of apoptosis in human SH-SY5Y cells assessed as late apoptotic cells at 1 uM measured after 24 hrs by Annexin V-FITC/PI staining based flowcytometry (reference value: 14.32%); assay type: functional
SH-SY5Y [17] = test: Induction of apoptosis in human SH-SY5Y cells assessed as necrotic cells at 1 uM measured after 24 hrs by Annexin V-FITC/PI staining based flowcytometry (reference value: 7.81%); assay type: functional
SH-SY5Y [18] = test: Induction of apoptosis in human SH-SY5Y cells assessed as early apoptotic cells at 2 uM measured after 24 hrs by Annexin V-FITC/PI staining based flowcytometry (reference value: 0.82%); assay type: functional
SH-SY5Y [19] = test: Induction of apoptosis in human SH-SY5Y cells assessed as early apoptotic cells at 4 uM measured after 24 hrs by Annexin V-FITC/PI staining based flowcytometry (reference value: 0.82%); assay type: functional
MDA-MB-231 [20] = test: Cell cycle arrest in human MDA-MB-231 cells assessed as accumulation of cells at G1 phase at 2 uM measured after 24 hrs by PI staining based flowcytometry method (reference value: 55.32%); assay type: functional
MDA-MB-231 [21] = test: Cell cycle arrest in human MDA-MB-231 cells assessed as accumulation of cells at G1 phase at 4 uM measured after 24 hrs by PI staining based flowcytometry method (reference value: 55.32%); assay type: functional
MDA-MB-231 [22] = test: Cell cycle arrest in human MDA-MB-231 cells assessed as accumulation of cells at S phase at 4 uM measured after 24 hrs by PI staining based flowcytometry method (reference value: 20.81%); assay type: functional
SH-SY5Y [23] = test: Cell cycle arrest in human SH-SY5Y cells assessed as accumulation of cells at S phase at 1 uM measured after 24 hrs by PI staining based flowcytometry method (reference value: 27.69%); assay type: functional
SH-SY5Y [24] = test: Cell cycle arrest in human SH-SY5Y cells assessed as accumulation of cells at S phase at 4 uM measured after 24 hrs by PI staining based flowcytometry method (reference value: 27.69%); assay type: functional
[25] = biological target: Insulin receptor (Homo sapiens) (UniProt P06213); test: Inhibition of human InsR at 1 uM
Sequence of Insulin receptor (Homo sapiens) (P06213 28-758 limits assumed): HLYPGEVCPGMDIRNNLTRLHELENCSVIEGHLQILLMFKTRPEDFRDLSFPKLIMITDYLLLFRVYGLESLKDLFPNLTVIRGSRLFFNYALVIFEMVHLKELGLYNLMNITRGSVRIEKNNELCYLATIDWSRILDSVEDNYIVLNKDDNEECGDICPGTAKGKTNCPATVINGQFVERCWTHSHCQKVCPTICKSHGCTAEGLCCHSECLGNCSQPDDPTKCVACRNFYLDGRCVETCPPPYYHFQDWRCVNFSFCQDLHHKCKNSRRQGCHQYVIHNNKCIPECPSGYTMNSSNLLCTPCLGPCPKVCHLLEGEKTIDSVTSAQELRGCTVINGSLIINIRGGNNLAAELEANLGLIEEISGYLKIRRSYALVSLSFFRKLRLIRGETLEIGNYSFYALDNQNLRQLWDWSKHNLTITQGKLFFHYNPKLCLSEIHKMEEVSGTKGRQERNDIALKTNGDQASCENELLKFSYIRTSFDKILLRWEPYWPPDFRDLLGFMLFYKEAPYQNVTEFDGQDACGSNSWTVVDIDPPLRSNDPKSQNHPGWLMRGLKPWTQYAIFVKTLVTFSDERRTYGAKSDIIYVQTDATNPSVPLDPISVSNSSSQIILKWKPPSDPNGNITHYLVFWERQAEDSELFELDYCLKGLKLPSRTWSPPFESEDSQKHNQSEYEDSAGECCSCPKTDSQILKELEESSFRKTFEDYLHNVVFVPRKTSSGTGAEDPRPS
Sequence of Insulin receptor (Homo sapiens) (P06213 763-1382 limits assumed): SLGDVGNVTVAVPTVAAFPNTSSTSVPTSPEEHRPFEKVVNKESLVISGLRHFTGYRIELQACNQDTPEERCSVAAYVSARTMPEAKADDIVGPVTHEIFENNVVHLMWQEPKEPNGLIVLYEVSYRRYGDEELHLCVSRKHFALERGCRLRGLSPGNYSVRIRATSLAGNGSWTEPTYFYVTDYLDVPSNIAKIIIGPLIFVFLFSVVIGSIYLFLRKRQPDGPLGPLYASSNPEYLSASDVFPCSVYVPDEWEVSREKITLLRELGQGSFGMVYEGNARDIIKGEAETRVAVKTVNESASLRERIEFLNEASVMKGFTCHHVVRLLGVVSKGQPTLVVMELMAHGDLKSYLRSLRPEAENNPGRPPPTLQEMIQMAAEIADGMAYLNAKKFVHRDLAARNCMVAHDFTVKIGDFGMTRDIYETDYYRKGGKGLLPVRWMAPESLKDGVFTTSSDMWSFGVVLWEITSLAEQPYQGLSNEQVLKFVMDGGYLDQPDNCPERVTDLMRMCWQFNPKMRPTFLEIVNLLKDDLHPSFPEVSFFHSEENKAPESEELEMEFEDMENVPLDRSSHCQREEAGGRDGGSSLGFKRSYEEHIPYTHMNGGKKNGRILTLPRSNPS

[26] = biological target: Fibroblast growth factor receptor (Homo sapiens) (UniProt P22607+P11362+P22455+P21802); test: Inhibition of human FGFR at 1 uM; assay type: protein assay
[27] = AUC (0 to infinity) in Sprague-Dawley rat at 1 mg/kg, iv measured for 12 hrs by LC-MS/MS analysis; assay type: ADME, organism-based; design: route intravenous, dose 1 mg/kg, time 12 hrs; conditions: in vivo
[28] = Half life in Sprague-Dawley rat at 1 mg/kg, iv measured for 12 hrs by LC-MS/MS analysis; assay type: ADME, organism-based; conditions: in vivo
A549 = test: Potency index, ratio of crizotinib IC50 to test compound IC50 for human A549 cells assessed as inhibition of cell proliferation measured after 72 hrs by CCK8 assay; assay type: functional
[29] = Potency index, ratio of crizotinib IC50 to test compound IC50 for human SKNBE2 cells harboring wild type ALK assessed as inhibition of cell proliferation measured after 72 hrs by CCK8 assay; assay type: functional
SH-SY5Y [30] = test: Potency index, ratio of ceritinib IC50 to test compound IC50 for human SH-SY5Y cells harboring ALK F1174L mutant assessed as inhibition of cell proliferation measured after 72 hrs by CCK8 assay; assay type: functional
SH-SY5Y [31] = test: Potency index, ratio of crizotinib IC50 to test compound IC50 for human SH-SY5Y cells harboring ALK F1174L mutant assessed as inhibition of cell proliferation measured after 72 hrs by CCK8 assay; assay type: functional
[32] = biological target: T2, ALK tyrosine kinase receptor; test: Inhibition of ALK in human MDA-MB-231 cells assessed as inhibition of ERK phosphorylation at Thr202/Tyr204 residue measured after 24 hrs by Western blot assay; assay type: cell-based; conditions: dose 1-4 µM
Target sequence in this assay (Q9UM73 19-1620 limits assumed): as the sequence (Q9UM73 19-1620 limits assumed) above

Histone deacetylase 1 [33] = biological target: T1, Histone deacetylase 1; test: biochemical
Description: Inhibition of recombinant human C-terminal His/FLAG-tagged HDAC1 (1 to 482 residues) expressed in Sf9 insect cells using Ac-peptide-AMC as substrate preincubated for 15 mins followed by addition of substrate and trypsin measured by flourescence assay

SMILES: CC(C)S(=O)(=O)c1ccccc1Nc1nc(Nc2ccc(NC(=O)CCCCCCC(=O)NO)cc2)ncc1Cl
- IC50 (SH-SY5Y [1]): 110 nM
- inhibition (Histone deacetylase 1 [2]): 87%
- inhibition [3]: 80.8%
- IC50 [4]: 2.1 nM
- IC50 (HepG2): 640 nM
- Activity (MDA-MB-231 [5]): 3.7%
- Activity (MDA-MB-231 [6]): Active
- Activity (MDA-MB-231 [7]): Active
- viability at 1 µM (MDA-MB-231 [8]): 87.9%
- Activity (MDA-MB-231 [9]): 8.79%
- Activity (MDA-MB-231 [10]): 5.5%
- viability at 4 µM (MDA-MB-231 [11]): 76.9%
- Activity (MDA-MB-231 [12]): 4.42%
- Activity (MDA-MB-231 [13]): 14.85%
- Activity (MDA-MB-231 [14]): 3.86%
- viability at 1 µM (SH-SY5Y [15]): 87.9%
- Activity (SH-SY5Y [16]): 21.05%
- Activity (SH-SY5Y [17]): 10.08%
- Activity (SH-SY5Y [18]): 4.02%
- Activity (SH-SY5Y [19]): 5.34%
- Activity (MDA-MB-231 [20]): 32.53%
- Activity (MDA-MB-231 [21]): 34.64%
- Activity (MDA-MB-231 [22]): 14.37%
- Activity (SH-SY5Y [23]): 18.33%
- Activity (SH-SY5Y [24]): 7.55%
- inhibition [25]: Active
- inhibition [26]: 95%
- AUC(0-inf) [27]: 205 ng·h/mL
- half-life [28]: 25.2 min
- Ratio IC50 (A549): 3
- Ratio IC50 [29]: 3
- Ratio IC50 (SH-SY5Y [30]): 3
- Ratio IC50 (SH-SY5Y [31]): 3
- inhibition [32]: Dose-Dependent Effect
- IC50 (Histone deacetylase 1 [33]): 7.9 nM
